Results taken from US20120034613A1, “Apparatus and Method for Testing Relationships Between Gene Expression and Physical Appearance of Skin” (NSE Products, Inc., priority 2010, published 2012).

Key:
[1] = test system: human equivalent skin tissue; test: RT-rt-PCR (TaqMan Low Density Arrays) gene expression confirmation, agent-exposed vs unexposed skin model; format: cell-based; conditions: Salicin 0.5% vs. Untreated Control, HPRT as Endogenous Control Gene
Description: Preferably this is done with the same skin model as used with the microarray technology for measuring global gene expression. The qualities of the agent (concentration, solvent, etc.) should normally be the same.
In some embodiments, the agent tested is salicin at a concentration of 0.5% salicin, available from Symrise Corporation (Teterborro, N.J.). The salicin is dissolved in water. Affymetrix microarray testing provides results for thousands of genes, whereas RT-rt-PCR testing provides results for a smaller gene group. For RT-rt-PCR testing, about 90 genes are tested at a time for this particular experimental design (other designs may test as many as 390 at a time on the equipment identified below). The experimenter may choose this number based on cost.
To implement this step, RT-rt-PCR is conducted for specific genes known to be involved in skin aging. In one embodiment Custom TaqMan® Low Density Arrays (TLDA's) were configured using Applied Biosystems validated gene expression assays. The validated gene expression assays contain a TaqMan® fluorescent probe and primers for each target gene. Genes for the TLDA cards are selected based on either, published literature describing the genes functional role in skin cell biology and aging and/or the previous Affymetrix testing results. (See Tables 1-4). Five endogenous control genes may be included on each card. Thus, when a particular gene assembly is tested with RT-rt-PCR, the data resulting may cover more than just the set of genes as in Table 3.
(High-Capacity cDNA Reverse Transcription Kits for 200 and 1000 Reactions Protocol (October, 2006)). cDNA was mixed with TaqMan® Universal Master Mix without UNG and loaded into the wells of the TLDA cards. The cards are run using an Applied Biosystems 7900HT instrument according to the manufacturer's cycling parameters.
As with the microassay, the analysis is done with a skin model exposed to the agent and a reference that is not exposed to the agent. The skin model not exposed to the agent may be used for calibration. The skin model may be human equivalent skin tissue. The target genes get normalized to a stable endogenous control (genes that are invariants in all cell types such as […]). This normalization is to account for variations that may occur during sample loading. The unexposed information gathered is used for comparison against the tested sample.
The formula for ΔCT (delta cycle threshold) is CT (target) minus CT (endogenous control gene). (ΔCT=CT (target)−CT (endogenous control gene)). The test system, data processing system 710 stores the data then uses process application modules 720 to take the CT values for both the exposed and unexposed and get a ΔΔCT value, which is reported for that specific gene in a log ratio scale. […] In one embodiment, data analysis is carried out according to the RQ analysis method using RQ Manager and StatMiner (v3.1) software programs.
At least part of the comparing of the data is performed by a computer system, such as the data processing system 710 (see FIG. 7) for performing data access and storage and various computations specified by software (process application modules 720) corresponding to the functions occurring at various described steps of this method. Additional process application modules 722 perform a parametric t-test with a Benjamini and Hochberg false discovery rate correction is performed to identify genes with a statistically significant p value equal to or less than 0.05. The up or down regulation of the gene is also identifiable from the RT-rt-PCR analysis. Results of the change in threshold cycle (ΔCT) values between the exposed and unexposed human skin tissues are calculated by a software program. The selected genes will have a cycle threshold of biological relevance. For these experiments, the selected genes have a cycle threshold of less than about <35, which is a value of biological relevance. […]

stratum corneum = test: Corneometry, moisture content of the stratum corneum, 12 week clinical study; format: in vivo, human; conditions: Left Ocular Bone; for Corneometer Mean: Baseline mean 56.49
Excerpt: Corneometry measurements were taken on each subject's left ocular bone (in line with pupil) to measure the moisture content of the stratum corneum. All clinical and corneometer measurements and evaluations were taken at baseline, week 1 (visit 2), week 4 (visit 3), week 8 (visit 4) and week 12 (visit 5). Ultrasound and cutometer measurements and evaluations were taken at baseline, week 4 (visit 3), week 8 (visit 4) and week 12 (visit 5). Completed patient's diaries were reviewed for compliance at each visit. Mean clinical grading and instrumentation scores at each visit were statistically compared to baseline scores using paired t-test. Changes from baseline were considered significant at the p≦0.05 level. Mean percent change from baseline and incidence of positive responders were calculated for all attributes. Comparisons, based on the average from baseline, were made between the test materials using analysis of variance (ANOVA).

[2] = test system: facial skin in the crow's feet area; test: Ultrasound measurement of density of the facial skin, 12 week clinical study; format: in vivo, human; conditions: for Ultrasound Density Mean: Baseline mean 18.55
Excerpt: Ultrasound measurements were taken on the left side of each subject's face to measure density of the facial skin in the crow's feet area. Measurements were taken with the probe oriented perpendicular to the body axis while the subjects were resting supine on a padded patient table. All clinical and corneometer measurements and evaluations were taken at baseline, week 1 (visit 2), week 4 (visit 3), week 8 (visit 4) and week 12 (visit 5). Ultrasound and cutometer measurements and evaluations were taken at baseline, week 4 (visit 3), week 8 (visit 4) and week 12 (visit 5). Completed patient's diaries were reviewed for compliance at each visit. Mean clinical grading and instrumentation scores at each visit were statistically compared to baseline scores using paired t-test. Changes from baseline were considered significant at the p≦0.05 level. Mean percent change from baseline and incidence of positive responders were calculated for all attributes. Comparisons, based on the average from baseline, were made between the test materials using analysis of variance (ANOVA).

OCc1ccccc1O[C@@H]1O[C@H](CO)[C@@H](O)[C@H](O)[C@H]1O [Salicin, 2-(Hydroxymethyl)phenyl β-D-glucospyranoside]
CAT gene expression Direction [1]: down
CAT gene expression Log10RG [1]: −0.4768
COL4A1 gene expression Direction [1]: up
COL4A1 gene expression Log10RG [1]: 0.2086
DSC3 gene expression Direction [1]: down
DSC3 gene expression Log10RG [1]: −0.2938
DSP gene expression Direction [1]: down
DSP gene expression Log10RG [1]: −0.2223
FN1 gene expression Direction [1]: up
FN1 gene expression Log10RG [1]: 0.2411
FOXO1 gene expression Direction [1]: up
FOXO1 gene expression Log10RG [1]: 0.2383
IL6 gene expression Direction [1]: up
IL6 gene expression Log10RG [1]: 0.9322
ITGB1 gene expression Direction [1]: up
ITGB1 gene expression Log10RG [1]: 9.36E−02
ITGB4 gene expression Direction [1]: down
ITGB4 gene expression Log10RG [1]: −0.8283
KRT1 gene expression Direction [1]: down
KRT1 gene expression Log10RG [1]: −1.112
KRT5 gene expression Direction [1]: down
KRT5 gene expression Log10RG [1]: −0.445
LOR gene expression Direction [1]: down
LOR gene expression Log10RG [1]: −1.921
PRKCA gene expression Direction [1]: up
PRKCA gene expression Log10RG [1]: 0.2749
S100A8 gene expression Direction [1]: down
S100A8 gene expression Log10RG [1]: −0.6307
S100A9 gene expression Direction [1]: down
S100A9 gene expression Log10RG [1]: −0.6513
SDC1 gene expression Direction [1]: down
SDC1 gene expression Log10RG [1]: −0.3961
SMAD7 gene expression Direction [1]: up
SMAD7 gene expression Log10RG [1]: 0.2325
SOD2 gene expression Direction [1]: up
SOD2 gene expression Log10RG [1]: 0.3025
TNC gene expression Direction [1]: up
TNC gene expression Log10RG [1]: 0.1429
ITGB1 gene expression Log10RG ([1]; listed as salicin): 0.09356
Corneometer Mean (stratum corneum; Week 1): 60.54
Corneometer % Change (stratum corneum; Week 1 vs Baseline): (7.3%)
Corneometer Mean (stratum corneum; Week 4): 62.49
Corneometer % Change (stratum corneum; Week 4 vs Baseline): (10.6%)
Corneometer Mean (stratum corneum; Week 8): 63.91
Corneometer % Change (stratum corneum; Week 8 vs Baseline): (13.1%)
Corneometer Mean (stratum corneum; Week 12): 52.23
Corneometer % Change (stratum corneum; Week 12 vs Baseline): (−7.5%)
Ultrasound Density Mean ([2]; Week 4): 21.38
Ultrasound Density % Change ([2]; Week 4 vs Baseline): (15.2%)
Ultrasound Density Mean ([2]; Week 8): 23.52
Ultrasound Density % Change ([2]; Week 8 vs Baseline): (26.7%)
Ultrasound Density Mean ([2]; Week 12): 25.21
Ultrasound Density % Change ([2]; Week 12 vs Baseline): (35.8%)
